Test results taken from US20030157146A1, “Stimulation of the immune system with polydextrose” (priority 2002, published 2003).

Columns and labels:
biogenic amines = biogenic amines from caecal digesta of rats (HPLC, dansyl derivatives); assay type: in vivo, Wistar rats; details: rat caecal digesta, Example 3
Method: (§1) Four week old male Wistar rats, divided into a control group and three test groups, consisting of 12 rats in each group, were held at a controlled temperature (27+2° C.) and 12:12 hrs light cycle. The animals had free access to food and water. The animals were weighed once a week and their weight gain was calculated. The control group was fed four weeks with a control (basal) diet and the test group was fed four weeks with the PDX-Polyol-diet, which consisted the control (basal) diet supplemented by an immunostimulating amount of polydextrose, and polyol as described in more detail below.
The control diet was the same diet as defined in Example 1. and the PDX-Polyol-diet was the same as defined in Example 2.
The digesta samples from caecum and colon were divided into pools (3 animals per pool) for the analysis of biogenic amines. The samples were stored in −20° C. until analysed. PH was measured from the caecum in situ.
Biogenic amines were determined from caecal digesta samples. […] The derivatives were separated on a C18 reversed phase column using mixture of ammonium acetate and acetonitrile as eluent, and detected with fluorescence detector.
(§2) The in vivo test of Example 2 and the in vitro fermentation of Example 3 were repeated and the level of tyramine was measured.

[1] = laxative effect in the test animals; design: species or system Wistar rats; details: in vivo
Method: as §1, with “(27±2°” for “(27+2°”
as §2

human fecal samples = test: 24 h batch fermentation with human fecal samples: production of SCFA; assay type: cell-based; details: 1% of each substance, 37° C., pH 6.9, anaerobic
Method: The test was based on a 24 h fermentation experiment performed with human fecal samples. Fecal samples were incubated in 24-hour batch cultures at 37° C. at pH 6.9 under anaerobic conditions containing a buffer medium (mineral salt, trace elements, vitamines). The medium was supplemented with 10% extract of caecal digesta from pig. Polydextrose, polyols and their combinations were added at the level of 1% each into the test cultures.

| laxative effect [1] | Molecule | amount of tyramine compared to a control diet (biogenic amines) | 2-metbutyric acid, production of SCFA (%) after 24 h fermentation (human fecal samples) [%] | Acetic acid, production of SCFA (%) after 24 h fermentation (human fecal samples) [%] | Butyric acid, production of SCFA (%) after 24 h fermentation (human fecal samples) [%] | Isobutyric acid, production of SCFA (%) after 24 h fermentation (human fecal samples) [%] | Isovaleric acid, production of SCFA (%) after 24 h fermentation (human fecal samples) [%] | Propionic acid, production of SCFA (%) after 24 h fermentation (human fecal samples) [%] | Total SCFA after 24 h fermentation (human fecal samples) [mmol/L] | Valeric acid, production of SCFA (%) after 24 h fermentation (human fecal samples) [%] |
| --- | --- | --- | --- | --- | --- | --- | --- | --- | --- | --- |
| laxative effect | OC[C@@H](O)[C@@H](O[C@@H]1O[C@H](CO)[C@H](O)[C@H](O)[C@H]1O)[C@H](O)[C@@H](O)CO [Lactitol, lactitol] | reduced | 0.2 | 66.2 | 31.1 | 0.4 | 0.2 | 9.3 | 153.6 | 0.9 |
|  | OC[C@@H](O)[C@@H](O[C@H]1O[C@H](CO)[C@@H](O)[C@H](O)[C@H]1O)[C@H](O)[C@@H](O)CO [Maltitol, maltitol] |  | 0.2 | 57.9 | 21.3 | 0.4 | 0.2 | 12.1 | 157.0 | 1.2 |
|  | OC[C@@H](O)[C@@H](O)[C@H](O)[C@@H](O)CO [Sorbitol, sorbitol] |  | 0.2 | 55.2 | 38.6 | 0.5 | 0.3 | 11.4 | 122.4 | 1.4 |
|  | OC[C@@H](O)[C@H](O)[C@@H](O)CO [Xylitol, xylitol] |  | 0.3 | 45.8 | 27.9 | 0.6 | 0.3 | 12.6 | 191.6 | 1.9 |
|  | isomalt |  | 0.2 | 64.0 |  | 0.4 | 0.2 | 12.8 | 158.6 | 1.2 |
